Peptide text beside a SMILES is read from it.
test system: WT MEFs; assay: cells; settings: read-out: EC50 for inducing fusion (Mito AR); WT MEFs, mitochondrial aspect ratio
Source text: Next, it was visually examined if MASM7 could induce mitochondrial fusion in MEFs, using mitochondrial aspect ratio (mitochondrial length/width, reflecting fusion) as a readout. […] (FIG. 5).

Row | Structure (SMILES) | EC50 [nM]
1 | CC[C@H](C)[C@H](NC(=O)CNC(=O)[C@H](CCCNC(=N)N)NC(=O)[C@@H](NC(=O)[C@H](CCC(=O)O)NC(=O)[C@H](C)NC(=O)[C@@H](NC(=O)[C@@H](N)CCC(N)=O)[C@@H](C)CC)C(C)C)C(=O)N[C@@H](CCSC)C(=O)N[C@@H](CC(=O)O)C(=O)N[C@@H](CO)C(=O)N[C@@H](CC(C)C)C(=O)N[C@@H](Cc1c[nH]cn1)C(=O)N[C@@H](CCSC)C(=O)N[C@@H](C)C(=O)N[C@@H](C)C(=O)N[C@@H](CCCNC(=N)N)C(=O)NCC(=O)NCC(=O)N[C@@H](Cc1ccc(O)cc1)C(=O)NCC(=O)N[C@@H](CCCNC(=N)N)C(=O)N[C@@H](CCCCN)C(=O)N[C@@H](CCCCN)C(=O)N[C@@H](CCCNC(=N)N)C(=O)N[C@@H](CCCNC(=N)N)C(=O)N[C@@H](CCC(N)=O)C(=O)N[C@@H](CCCNC(=N)N)C(=O)N[C@@H](CCCNC(=N)N)C(=O)N[C@@H](CCCNC(=N)N)C(=O)O [367-384 Gly, reference compound] (H-QIAEVRGIMDSLHMAARGGYGRKKRRQRRR-OH) | 340

biological target: T1, human Mfn2 (Homo sapiens, UniProt O95140); assay: FRET-based Mfn2 biosensor (wild type) in HEK 293T cells; assay type: cell-based; parameters: concentration or dose not given beside the values; settings: WT FRET-based Mfn2 biosensor, 2 h
T1 construct: expressed in transfected cells; host or cells: HEK 293T
T1 sequence (O95140 1-757): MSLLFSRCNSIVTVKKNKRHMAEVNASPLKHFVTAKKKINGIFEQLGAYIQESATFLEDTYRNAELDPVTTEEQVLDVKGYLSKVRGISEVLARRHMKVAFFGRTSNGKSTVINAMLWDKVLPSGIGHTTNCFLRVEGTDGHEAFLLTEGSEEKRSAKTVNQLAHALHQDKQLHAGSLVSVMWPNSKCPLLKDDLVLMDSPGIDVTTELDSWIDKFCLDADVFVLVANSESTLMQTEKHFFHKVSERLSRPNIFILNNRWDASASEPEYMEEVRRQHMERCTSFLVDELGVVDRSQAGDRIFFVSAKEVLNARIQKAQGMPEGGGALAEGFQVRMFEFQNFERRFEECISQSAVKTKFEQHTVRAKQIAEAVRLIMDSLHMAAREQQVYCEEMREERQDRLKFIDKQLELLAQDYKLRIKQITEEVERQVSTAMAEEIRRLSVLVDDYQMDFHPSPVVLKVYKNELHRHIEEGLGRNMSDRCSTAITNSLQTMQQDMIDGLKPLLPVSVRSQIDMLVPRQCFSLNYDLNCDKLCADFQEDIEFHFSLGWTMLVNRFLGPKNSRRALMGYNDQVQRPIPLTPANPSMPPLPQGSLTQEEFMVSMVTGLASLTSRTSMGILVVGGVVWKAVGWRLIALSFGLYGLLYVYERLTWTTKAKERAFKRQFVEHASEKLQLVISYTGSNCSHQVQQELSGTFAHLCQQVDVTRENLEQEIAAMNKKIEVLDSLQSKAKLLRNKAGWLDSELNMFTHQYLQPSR
Procedure: To generate FRET-based Mfn2 biosensor construct, pcDNA3.1-Flag-Mfn2 (5′Flag epitope cassette onto human Mfn2) was used as backbone, and mCerulean (cyan fluorescent protein; CFP) was fused onto 5′ of Mfn2 and mVenus (yellow fluorescent protein; YFP) onto 3′ of ORF of Mfn2 (20-22). […] Then, the mVenus fragment was fused into pcDNA3.1-Cerulean1-Mfn2 to generate pcDNA3.1-Cerulean1-Mfn2-mVenus with mega-mutagenesis PCR using mVenus fragment as mega primer. PCR conditions: lx 95° C. 10 min; 15×(95° C. 30 sec, […], 68° C. 18 min); 1×72° C. 10 min. The construct was confirmed by sequencing.
Cells were transfected with the total amount of 2.5 μg of DNA per well for the indicated Mfn2 FRET constructs using Lipofectamine® 3000 Reagent (Invitrogen) according to the manufacturer's protocol. The following day, transfected cells were transferred to a pre-coated with poly L-lysine 96-well black plate (2×10^4 cells/well). […] GTPγS (Sigma Aldrich) was used to inhibit GTPase activity of Mfn2. Subsequently, cells were treated for 2 h with MASMs or vehicle (0.1% DMSO). Dilutions of MASMs were performed using a TECAN D300e Digital Dispenser from 10 mM stock solutions. […] Acceptor/Donor ratio referred to the text and figures correspond to the ratio of fluorescence intensities (relative fluorescence units: RFU) detected by the acceptor filter/donor filter. Non-transfected cells were used to subtract background fluorescence from each of the aforementioned filters that were used in the study.
To evaluate the capacity of the selected hits to propel the pro-tethering conformation of Mfn2, a screening assay was developed based on a Forster resonance energy transfer (FRET) biosensor of Mfn2. […] Loss of intra-molecular HR1-HR2 interactions, occurring in the pro-tethering conformation of Mfn2, increase the distance between mCerulean and mVenus and lead to a decrease in the resonance energy that is transferred.

Row | Structure (SMILES) | % of FRET reduction [%]
2 | Cc1cc(NC(=O)C(C)SCC(=O)Nc2ccc(NC(C)c3ccccc3)cc2)no1 (centres unmarked) [MASM1] | −5.3
3 | Cc1ccc(C(=O)C(C)Sc2nnc3c(=O)n(-c4ccc(Br)cc4)ccn23)cc1C (centres unmarked) [MASM2] | −0.5
4 | Cc1ccc(CSCCNC(=O)C2CCN(c3ccc4nnc(C(F)(F)F)n4n3)CC2)cc1 [MASM3] | −14.1
5 | CC(/N=N/C(=N)SC1CC(=O)N(c2cccc(C(=O)O)c2)C1=O)c1ccccc1 (centres unmarked) [MASM4] | −8.6
6 | CC(c1cccc([N+](=O)[O-])c1)N(C)CC(=O)NCCSCc1ccccc1C#N (centres unmarked) [MASM5] | 0
7 | CCC(SC1Cc2cc(OC)c(OC)cc2-c2nc(CCn3nc(C)cc3C)nn21)C(=O)Nc1ccc(F)cc1 (centres unmarked) [MASM6] | −0.7
8 | CC(Sc1nc(C2CC2)nc2c1c(=O)[nH]c(=O)n2C1CC1)C(=O)NCC1CCCCC1 (centres unmarked) [MASM8] | 1.2
9 | COc1ccc2c(c1)C1(SCCN1C(=O)c1ccccc1C)C(=O)N2Cc1cccc(C(F)(F)F)c1 (centres unmarked) [MASM9] | 1.1
10 | O=C(CSCc1ccc(F)cc1)N1CCc2c([nH]c3ccccc23)C1c1ccc(Cl)cc1 (centres unmarked) [MASM11] | 1.97
11 | c1ccc(CSCCc2nc(C3CCOC3)no2)cc1 (centres unmarked) [MASM12] | −4.5
12 | CC(=O)NC12CC3CC(C1)CC(C(=O)NCCSCc1ccc(C)cc1)(C3)C2 [MASM13] | −4.6
13 | CCC(C)NC(=O)c1ccccc1NC(=O)C(C)Sc1ccc(C)cc1 (centres unmarked) [MASM14] | −10
14 | S=C(NCCSCc1ccco1)NC1CC2CCC1C2 (centres unmarked) [MASM15] | −3.6
15 | O=C(NCCSCc1ccccc1)C1CCCCO1 (centres unmarked) [MASM16] | −11.2
16 | Cc1ccc(NC(=O)CC2SC(CC(c3ccc(C(C)C)cc3)c3c(O)[nH]c(=O)[nH]c3=O)=NC2=O)c(C)c1 (centres unmarked) [MASM17] | −5.9
17 | COc1ccc(SC(C)C(=O)Nc2cc[nH]n2)cc1 (centres unmarked) [MASM18] | −5.8
18 | CC(Sc1nnc(C2CC2)n1-c1ccccc1)C(=O)NC(N)=O (centres unmarked) [MASM19] | 2.7
19 | CC(Sc1nnc(-c2ccccc2)n1-c1ccccc1)C(=O)Nc1sc2c(c1C(N)=O)CCC2 (centres unmarked) [MASM20] | 10.1
20 | NC(=O)c1c(NC(=O)CSc2nnc(C3CC3)n2-c2ccccc2)sc2c1CCC2 [MASM21] | 27.1
21 | CC(Sc1nnc(-c2ccco2)n1-c1ccccc1)C(=O)Nc1sc2c(c1C(N)=O)CCC2 (centres unmarked) [MASM22] | 31.7
22 | Cc1ccc(-c2nnc(SC(C)C(=O)Nc3sc4c(c3C(N)=O)CCC4)n2-c2ccccc2)o1 (centres unmarked) [MASM23] | 13.9
23 | CC1CCc2c(sc(NC(=O)CSc3nnc(C4CC4)n3-c3ccccc3)c2C(N)=O)C1 (centres unmarked) [MASM24] | 18.9

Row | Structure (SMILES) | % of FRET reduction [%]
24 | CC(Sc1nnc(C2CC2)n1Cc1ccccc1)C(=O)Nc1sc2c(c1C(N)=O)CCC2 (centres unmarked) [MASM25] | 32.2
25 | Cc1nnc(SCC(=O)Nc2sc3c(c2C(N)=O)CCC3)n1-c1ccccc1 [MASM26] | 37.0
26 | Cc1ccccc1-n1c(SCC(=O)Nc2sc3c(c2C(N)=O)CCC3)nnc1-c1ccncc1 [MASM27] | 30.0
27 | CC(Sc1nnc(C2CC2)n1-c1ccccc1)C(=O)Nc1sc2c(c1C#N)CCCCC2 (centres unmarked) [MASM28] | 8.0
28 | CC(Sc1nncn1-c1ccccc1)C(=O)Nc1sc2c(c1C(N)=O)CCC2 (centres unmarked) [MASM29] | 16.5
29 | C=CCn1c(SCC(=O)Nc2sc3c(c2C(N)=O)CCC3)nnc1C1CCCCC1 [MASM30] | 17.7
30 | CC(Sc1nnc(Cc2cccs2)n1C1CC1)C(=O)Nc1sc2c(c1C(N)=O)CCC2 (centres unmarked) [MASM31] | 30.7
31 | NC(=O)c1c(NC(=O)CSc2nc(C3CC3)n(-c3ccccc3)n2)sc2c1CCC2 [MASM32] | 37.0
32 | CC(c1nnc(SCC(=O)Nc2sc3c(c2C(N)=O)CCC3)n1-c1ccc(F)cc1)N(C)C (centres unmarked) [MASM33] | 31.9
33 | CC(Sc1nnc2c(Cl)cc(C(F)(F)F)cn12)C(=O)Nc1sc2c(c1C(N)=O)CCC2 (centres unmarked) [MASM34] | 19.4
34 | CC(Sc1nnc(Cc2ccccc2)n1C)C(=O)Nc1sc2c(c1C(N)=O)CCC2 (centres unmarked) [MASM35] | 25.9
35 | CC(Sc1nnc(-c2cccs2)n1-c1ccccc1)C(=O)Nc1sc2c(c1C(N)=O)CCC2 (centres unmarked) [MASM36] | 11.1
36 | CC(Sc1nccn1Cc1ccccc1)C(=O)Nc1sc2c(c1C(N)=O)CCC2 (centres unmarked) [MASM37] | 21.0
37 | CCn1c(Cc2ccccc2)nnc1SC(C)C(=O)Nc1sc2c(c1C(N)=O)CCC2 (centres unmarked) [MASM38] | 9.9
38 | CC(Sc1nnc(-c2ccco2)n1C1CCCCC1)C(=O)Nc1sc2c(c1C(N)=O)CCC2 (centres unmarked) [MASM39] | 9.9
39 | CC(Sc1nnnn1-c1ccc(O)cc1)C(=O)Nc1sc2c(c1C(N)=O)CCC2 (centres unmarked) [MASM40] | 22.6
40 | CC(Sc1nccn1-c1cccc(F)c1)C(=O)Nc1sc2c(c1C(N)=O)CCC2 (centres unmarked) [MASM41] | 10.2
41 | CC(C)Cn1c(SC(C)C(=O)Nc2sc3c(c2C(N)=O)CCC3)nnc1N1CCOCC1 (centres unmarked) [MASM42] | −1.4
42 | NC(=O)c1c(NC(=O)CSc2nnc(C3CC3)n2Cc2ccccc2)sc2c1CCC2 [MASM43] | 14.8
43 | Cn1c(SCC(=O)Nc2sc3c(c2C(N)=O)CCCC3)nnc1C1CC1 [MASM44] | 23.3
44 | CC(Sc1nnnn1C1CC1)C(=O)Nc1sc2c(c1C(N)=O)CCC2 (centres unmarked) [MASM45] | 26.4

From patent publication US11813268B2, “Mitofusin activators and uses thereof” (Albert Einstein College of Medicine, priority 2017, dated 2023)
